Molecules are shown by their SMILES. Several values for one entry are separate records, joined by “and”; a condition that tells them apart may be missing. Identical values can stand only once.

Drawing on PubChem BioAssay AID180 (DTP/NCI, 2004), this text covers T/C for 14 compounds.

For the assay, the system named is BDF1 mice, Adenocarcinoma 755 s.c., tumor weight T/C. The experiment in a line: NCI In Vivo Anticancer Drug Screen. Data for tumor model Adenocarcinoma 755 (subcutaneous) in B6D2F1 (BDF1) mice. As to conditions: endpoint: mean tumor weight, higher = larger tumour. In a few lines:
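Readout: T/C, i.e. treated-group measurement over vehicle-control measurement. Endpoint is survival or tumor size in tumor-bearing mice given compound.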

Setting [1] is: dose: 56.0 mg/kg/injection, schedule: Q01DX011 (ip), vehicle: methylcellulose (MC).
Setting [2] is: dose: 113.0 mg/kg/injection, schedule: Q01DX011 (ip), vehicle: methylcellulose (MC).
Setting [3] is: dose: 225.0 mg/kg/injection, schedule: Q01DX011 (ip), vehicle: methylcellulose (MC).
The mark [4] stands for this setting: dose: 1.25 mg/kg/injection, schedule: Q01DX011 (ip), vehicle: carboxymethylcellulose (CMC).
Where [5] appears, read: dose: 5.0 mg/kg/injection, schedule: Q01DX011 (ip), vehicle: carboxymethylcellulose (CMC).

In general, T/C refers to the ratio of treated to control. On to `C=CC(O)CN1CC1=C` (stereo not given), for which the T/C is, setting by setting: (dose: 1.9 mg/kg/injection, schedule: Q01DX011 (ip), vehicle: methylcellulose (MC)) 77 % of control; (dose: 3.75 mg/kg/injection, schedule: Q01DX011 (ip), vehicle: methylcellulose (MC)) 111 % of control; (dose: 7.5 mg/kg/injection, schedule: Q01DX011 (ip), vehicle: methylcellulose (MC)) 73 % of control; (dose: 15.0 mg/kg/injection, schedule: Q01DX011 (ip), vehicle: methylcellulose (MC)) 21 % of control.

`O=C(N[C@H](CO)[C@H](O)c1ccc([N+](=O)[O-])cc1)C(Cl)Cl`: the T/C (dose: 71.73 mg/kg/injection, schedule: Q01DX011 (ip), vehicle: carboxymethylcellulose (CMC)) was 88 % of control; the T/C (dose: 73.63 mg/kg/injection, schedule: Q01DX011 (ip), vehicle: carboxymethylcellulose (CMC)) is 103 % of control and 106 % of control; the T/C (dose: 95.85 mg/kg/injection, schedule: Q01DX011 (ip), vehicle: carboxymethylcellulose (CMC)) is 95 % of control; the T/C (dose: 143.47 mg/kg/injection, schedule: Q01DX011 (ip), vehicle: carboxymethylcellulose (CMC)) was 104 % of control; the T/C (dose: 147.25 mg/kg/injection, schedule: Q01DX011 (ip), vehicle: carboxymethylcellulose (CMC)) was 71 % of control; the T/C (dose: 187.5 mg/kg/injection, schedule: Q01DX011 (ip), vehicle: methylcellulose (MC)) was 70 % of control. In addition, the T/C (dose: 191.7 mg/kg/injection, schedule: Q01DX011 (ip), vehicle: carboxymethylcellulose (CMC)) is 156 % of control; the T/C (dose: 286.95 mg/kg/injection, schedule: Q01DX011 (ip), vehicle: carboxymethylcellulose (CMC)) was 115 % of control; the T/C (dose: 294.5 mg/kg/injection, schedule: Q01DX011 (ip), vehicle: carboxymethylcellulose (CMC)) was 65 % of control; the T/C (dose: 300.0 mg/kg/injection, schedule: Q01DX011 (ip), vehicle: carboxymethylcellulose (CMC)) was 104 % of control; the T/C (dose: 375.0 mg/kg/injection, schedule: Q01DX011 (ip), vehicle: methylcellulose (MC)) is 62 % of control; the T/C (dose: 500.0 mg/kg/injection, schedule: Q01DX011 (ip), vehicle: carboxymethylcellulose (CMC)) is 69 % of control. In addition, the T/C (dose: 750.0 mg/kg/injection, schedule: Q01DX011 (ip), vehicle: methylcellulose (MC)) was 99 % of control.

With `CS(=O)(=O)OCCC(=O)NCCCCNC(=O)CCOS(C)(=O)=O`, the T/C was 66 % of control (dose: 56.0 mg/kg/injection, schedule: Q01DX011 (ip), vehicle: carboxymethylcellulose (CMC)); 85 % of control under setting [1]; 48 % of control (dose: 113.0 mg/kg/injection, schedule: Q01DX011 (ip), vehicle: carboxymethylcellulose (CMC)); 31 % of control under setting [2]; 12 % of control (dose: 225.0 mg/kg/injection, schedule: Q01DX011 (ip), vehicle: carboxymethylcellulose (CMC)); 8 % of control under setting [3]. Also, the T/C (dose: 450.0 mg/kg/injection, schedule: Q01DX011 (ip), vehicle: carboxymethylcellulose (CMC)) was 7 % of control.

`O=CNC(Cc1ccc(N(CCCl)CCCl)cc1)C(=O)O` (stereo not given): the T/C under setting [4] was 94 % of control; the T/C (dose: 1.25 mg/kg/injection, schedule: Q01DX011 (ip), vehicle: saline) is 87 % of control; the T/C (dose: 2.5 mg/kg/injection, schedule: Q01DX011 (ip), vehicle: carboxymethylcellulose (CMC)) is 54 % of control; the T/C (dose: 2.5 mg/kg/injection, schedule: Q01DX011 (ip), vehicle: saline) is 91 % of control; the T/C under setting [5] was 31 % of control and 50 % of control; the T/C (dose: 5.0 mg/kg/injection, schedule: Q01DX011 (ip), vehicle: saline) was 71 % of control. The T/C runs as follows: (dose: 10.0 mg/kg/injection, schedule: Q01DX011 (ip), vehicle: carboxymethylcellulose (CMC)) 23 % of control; (dose: 10.0 mg/kg/injection, schedule: Q01DX011 (ip), vehicle: methylcellulose (MC)) 34 % of control; (dose: 10.0 mg/kg/injection, schedule: Q01DX011 (ip), vehicle: saline) 66 % of control; (dose: 20.0 mg/kg/injection, schedule: Q01DX011 (ip), vehicle: methylcellulose (MC)) 34 % of control; (dose: 40.0 mg/kg/injection, schedule: Q01DX011 (ip), vehicle: carboxymethylcellulose (CMC)) 2 % of control; (dose: 40.0 mg/kg/injection, schedule: Q01DX011 (ip), vehicle: methylcellulose (MC)) 23 % of control. Where the note is “dose: 80.0 mg/kg/injection, schedule: Q01DX011 (ip), vehicle: methylcellulose (MC)”, the T/C is 4 % of control.

For the compound `O=C(Nc1ccc(NC2=NCCN2)cc1)c1ccc(C(=O)Nc2ccc(NC3=NCCN3)cc2)cc1`, the T/C by setting is: (dose: 4.0 mg/kg/injection, schedule: Q01DX011 (ip), vehicle: saline) 96 % of control; (dose: 8.0 mg/kg/injection, schedule: Q01DX011 (ip), vehicle: saline) 85 % of control; (dose: 16.0 mg/kg/injection, schedule: Q01DX011 (ip), vehicle: saline) 83 % of control.

Take `C[C@]1(O)CC[C@H]2[C@@H]3CC[C@@H]4C[C@H](O)CC[C@]4(C)[C@@]3(F)[C@@H](O)C[C@@]21C`: the T/C is 73 % of control (dose: 25.0 mg/kg/injection, schedule: Q01DX011 (sc), vehicle: steriod suspending solution); 90 % of control (dose: 200.0 mg/kg/injection, schedule: Q01DX011 (sc), vehicle: steriod suspending solution); 87 % of control (dose: 400.0 mg/kg/injection, schedule: Q01DX011 (sc), vehicle: steriod suspending solution).

In the case of `CCOP(=O)(O)OCC1OC(n2cnc3c(=S)nc[nH]c32)C(O)C1O` (stereo not given), the T/C is 12 % of control (dose: 3.0 mg/kg/injection, schedule: Q01DX011 (ip), vehicle: carboxymethylcellulose (CMC)); 2 % of control (dose: 6.0 mg/kg/injection, schedule: Q01DX011 (ip), vehicle: carboxymethylcellulose (CMC)); 4 % of control (dose: 12.0 mg/kg/injection, schedule: Q01DX011 (ip), vehicle: carboxymethylcellulose (CMC)).

For the compound `O=C(CCBr)Nc1ccc(NC(=O)CCBr)cc1`, the T/C is 113 % of control under setting [1]; 108 % of control under setting [2]; 100 % of control under setting [3]; 117 % of control (dose: 450.0 mg/kg/injection, schedule: Q01DX011 (ip), vehicle: methylcellulose (MC)).

In the case of `O=C1Nc2cc3c(c4cccc1c24)CCCC3`, the T/C is 111 % of control under setting [4] and 95 % of control under setting [5].

Regarding `O=C(Nc1ccc(C2=NCCCN2)cc1)c1ccc(NC(=O)c2ccc(C3=NCCCN3)cc2)cc1`, the T/C is 89 % of control (dose: 2.0 mg/kg/injection, schedule: Q01DX011 (ip), vehicle: carboxymethylcellulose (CMC)); 63 % of control (dose: 4.0 mg/kg/injection, schedule: Q01DX011 (ip), vehicle: carboxymethylcellulose (CMC)); 53 % of control (dose: 8.0 mg/kg/injection, schedule: Q01DX011 (ip), vehicle: carboxymethylcellulose (CMC)).

On to `N#CCCn1cnc2c(Cl)ncnc21`, for which the T/C (dose: 50.0 mg/kg/injection, schedule: Q01DX011 (ip), vehicle: other) was 85 % of control; the T/C (dose: 100.0 mg/kg/injection, schedule: Q01DX011 (ip), vehicle: other) was 157 % of control; the T/C (dose: 400.0 mg/kg/injection, schedule: Q01DX011 (ip), vehicle: other) is 98 % of control; the T/C (dose: 600.0 mg/kg/injection, schedule: Q01DX011 (ip), vehicle: other) was 63 % of control; the T/C (dose: 800.0 mg/kg/injection, schedule: Q01DX011 (ip), vehicle: other) is 94 % of control.

`c1ccn(-c2nc(-n3cccc3)nc(-n3cccc3)n2)c1`: the T/C is 72 % of control (dose: 31.25 mg/kg/injection, schedule: Q01DX011 (ip), vehicle: carboxymethylcellulose (CMC)); 86 % of control (dose: 62.5 mg/kg/injection, schedule: Q01DX011 (ip), vehicle: carboxymethylcellulose (CMC)); 73 % of control (dose: 125.0 mg/kg/injection, schedule: Q01DX011 (ip), vehicle: carboxymethylcellulose (CMC)); 17 % of control and 38 % of control (dose: 250.0 mg/kg/injection, schedule: Q01DX011 (ip), vehicle: carboxymethylcellulose (CMC)).

Take `Cn1cnc(=N)c2[nH]cnc21`: the T/C reads like this: (dose: 30.0 mg/kg/injection, schedule: Q01DX011 (ip), vehicle: carboxymethylcellulose (CMC)) 97 % of control; (dose: 60.0 mg/kg/injection, schedule: Q01DX011 (ip), vehicle: carboxymethylcellulose (CMC)) 93 % of control; (dose: 120.0 mg/kg/injection, schedule: Q01DX011 (ip), vehicle: carboxymethylcellulose (CMC)) 73 % of control; (dose: 240.0 mg/kg/injection, schedule: Q01DX011 (ip), vehicle: carboxymethylcellulose (CMC)) 93 % of control.

In the case of `CCCNc1cc(=O)[nH]c(N)n1`, the T/C runs as follows: (dose: 55.0 mg/kg/injection, schedule: Q01DX011 (ip), vehicle: methylcellulose (MC)) 110 % of control; (dose: 165.0 mg/kg/injection, schedule: Q01DX011 (ip), vehicle: methylcellulose (MC)) 41 % of control.
